{"source": "patent US20250170140A1", "about": "“PHARMACEUTICAL COMPOSITION FOR PREVENTING OR TREATING CANCER COMPRISING CARNITINE ACYLCARNITINE CARRIER INHIBITOR AND PEROXISOMAL BETA OXIDATION INHIBITOR” (priority 2021, published 2025)", "assay_type_in_all_cases": "cell-based", "key": {"SK-HEP-1 cells": {"system": "SK-HEP-1 cells", "assay": "SRB assay, liver cancer cell line SK-HEP-1", "method": "(§1) As a comparison, omeprazole (KN510) and trimetazidine (KN713), a 3-ketoacyl CoA thiolase inhibitor, were co-treated. […] After cell inoculation, 96-well cell culture plates were incubated for 24 hours before the addition of experimental drugs. […] The cells were then incubated in a CO2 incubator for 48 hours, after which the assay was terminated by the addition of cold TCA. Cells were fixed in situ by gently adding 50 μl of cold 50% (w/v) TCA (final concentration: 10% TCA) and incubated at 4° C. for 60 min. The supernatant was discarded, and the plate was washed five times with distilled water and air dried. Sulforhodamine B (SRB) solution (100 μl) of 0.4% (w/v) in 1% acetic acid was added to each well, and the plate was left at room temperature for 10 min. After staining, unbound dye was removed by washing five times with 1% acetic acid, and the plate was air-dried. The bound dye was then solubilized with 10 mM trizma base, and the absorbance was recorded at 515 nm using an automated plate reader. […] The predicted synergistic activity of a combination of the present invention can be calculated using the Colby Equation in Equation 1 (S.R. Colby, Weeds, 1967, pp. 15, 20-22): In the present invention, the actual measure of anti-cancer activity of the combination treatment was the inhibition rate of cancer cell growth (%), and the predicted value (E) of the combination treatment was measured by substituting it into the above Colby Equation."}, "UACC-62 cells": {"system": "UACC-62 cells", "assay": "SRB assay, melanoma cell line UACC-62", "method": "as §1"}, "U251 cells": {"system": "U251 cells", "assay": "SRB assay, glioblastoma cell line U251", "method": "as §1"}, "DLD-1 cells": {"system": "DLD-1 cells", "assay": "SRB assay, colon cancer cell line DLD-1", "method": "as §1"}, "[1]": {"conditions": "Homo sapiens, KN510 100 μM, read-out: Inhibition rate of cancer cell growth (%) (Actual value)"}, "[2]": {"conditions": "Homo sapiens, KN510 200 μM, read-out: Inhibition rate of cancer cell growth (%) (Actual value)"}, "[3]": {"conditions": "Homo sapiens, KN714 5 μM, read-out: Inhibition rate of cancer cell growth (%) (Actual value)"}, "[4]": {"conditions": "Homo sapiens, KN714 10 μM, read-out: Inhibition rate of cancer cell growth (%) (Actual value)"}}, "data": [{"smiles": "COc1ccc2[nH]c([S+]([O-])Cc3ncc(C)c(OC)c3C)nc2c1", "note": "(centres unmarked) [KN510, omeprazole]", "values": [{"measurement": "inhibition at 100 µM", "setting": "SK-HEP-1 cells; Homo sapiens, SK-HEP1, KN510 100 μM, read-out: Inhibition rate of cancer cell growth (%) (Actual value)", "value": 46.7, "unit": "%"}, {"measurement": "inhibition at 200 µM", "setting": "SK-HEP-1 cells; Homo sapiens, SK-HEP1, KN510 200 μM, read-out: Inhibition rate of cancer cell growth (%) (Actual value)", "value": 62.8, "unit": "%"}, {"measurement": "Cancer cell growth rate Average (%)", "setting": "SK-HEP-1 cells; KN510 100 μM", "value": 53.28, "unit": "%"}, {"measurement": "Cancer cell growth rate Average (%)", "setting": "SK-HEP-1 cells; KN510 200 μM", "value": 37.19, "unit": "%"}, {"measurement": "inhibition at 100 µM", "setting": "UACC-62 cells; [1]", "value": 53.4, "unit": "%"}, {"measurement": "inhibition at 200 µM", "setting": "UACC-62 cells; [2]", "value": 96.4, "unit": "%"}, {"measurement": "Cancer cell growth rate Average (%)", "setting": "UACC-62 cells; KN510 100 μM", "value": 46.56, "unit": "%"}, {"measurement": "Cancer cell growth rate Average (%)", "setting": "UACC-62 cells; KN510 200 μM", "value": 3.59, "unit": "%"}, {"measurement": "inhibition at 100 µM", "setting": "U251 cells; Homo sapiens, U-251, KN510 100 μM, read-out: Inhibition rate of cancer cell growth (%) (Actual value)", "value": 26.5, "unit": "%"}, {"measurement": "inhibition at 200 µM", "setting": "U251 cells; Homo sapiens, U-251, KN510 200 μM, read-out: Inhibition rate of cancer cell growth (%) (Actual value)", "value": 44.9, "unit": "%"}, {"measurement": "Cancer cell growth rate Average (%)", "setting": "U251 cells; KN510 100 μM", "value": 73.51, "unit": "%"}, {"measurement": "Cancer cell growth rate Average (%)", "setting": "U251 cells; KN510 200 μM", "value": 55.11, "unit": "%"}, {"measurement": "inhibition at 100 µM", "setting": "DLD-1 cells; [1]", "value": 26.1, "unit": "%"}, {"measurement": "inhibition at 200 µM", "setting": "DLD-1 cells; [2]", "value": 63.2, "unit": "%"}, {"measurement": "Cancer cell growth rate Average (%)", "setting": "DLD-1 cells; KN510 100 μM", "value": 73.90, "unit": "%"}, {"measurement": "Cancer cell growth rate Average (%)", "setting": "DLD-1 cells; KN510 200 μM", "value": 36.78, "unit": "%"}]}, {"smiles": "CSc1ccc2c(c1)N(CCC1CCCCN1C)c1ccccc1S2", "note": "(centres unmarked) [KN714, 10-[2-(1-methyl-2-piperidyl)ethyl]-2-(methylthio)phenothiazine]", "values": [{"measurement": "inhibition at 5 µM", "setting": "SK-HEP-1 cells; Homo sapiens, SK-HEP1, KN714 5 μM, read-out: Inhibition rate of cancer cell growth (%) (Actual value)", "value": 17.6, "unit": "%"}, {"measurement": "inhibition at 10 µM", "setting": "SK-HEP-1 cells; Homo sapiens, SK-HEP1, KN714 10 μM, read-out: Inhibition rate of cancer cell growth (%) (Actual value)", "value": 40.1, "unit": "%"}, {"measurement": "Cancer cell growth rate Average (%)", "setting": "SK-HEP-1 cells; KN714 5 μM", "value": 82.37, "unit": "%"}, {"measurement": "Cancer cell growth rate Average (%)", "setting": "SK-HEP-1 cells; KN714 10 μM", "value": 59.94, "unit": "%"}, {"measurement": "inhibition at 5 µM", "setting": "UACC-62 cells; [3]", "value": 10.6, "unit": "%"}, {"measurement": "inhibition at 10 µM", "setting": "UACC-62 cells; [4]", "value": 60.5, "unit": "%"}, {"measurement": "Cancer cell growth rate Average (%)", "setting": "UACC-62 cells; KN714 5 μM", "value": 89.43, "unit": "%"}, {"measurement": "Cancer cell growth rate Average (%)", "setting": "UACC-62 cells; KN714 10 μM", "value": 39.54, "unit": "%"}, {"measurement": "inhibition at 5 µM", "setting": "U251 cells; Homo sapiens, U-251, KN714 5 μM, read-out: Inhibition rate of cancer cell growth (%) (Actual value)", "value": 40, "unit": "%"}, {"measurement": "inhibition at 10 µM", "setting": "U251 cells; Homo sapiens, U-251, KN714 10 μM, read-out: Inhibition rate of cancer cell growth (%) (Actual value)", "value": 121, "unit": "%"}, {"measurement": "Cancer cell growth rate Average (%)", "setting": "U251 cells; KN714 5 μM", "value": 59.99, "unit": "%"}, {"measurement": "Cancer cell growth rate Average (%)", "setting": "U251 cells; KN714 10 μM", "value": "−20.54", "unit": "%"}, {"measurement": "inhibition at 5 µM", "setting": "DLD-1 cells; [3]", "value": 8.66, "unit": "%"}, {"measurement": "inhibition at 10 µM", "setting": "DLD-1 cells; [4]", "value": 13.1, "unit": "%"}, {"measurement": "Cancer cell growth rate Average (%)", "setting": "DLD-1 cells; KN714 5 μM", "value": 91.34, "unit": "%"}, {"measurement": "Cancer cell growth rate Average (%)", "setting": "DLD-1 cells; KN714 10 μM", "value": 86.87, "unit": "%"}]}]}
